Where a name gives a salt, the structure may show the parent alone. Read-outs that look alike come from different tables or passages of the source.
Experiments:
JumpIn-DAT cells [1] = experiment: Effect of pretreatment alone on impedance, dox-treated JumpIn-DAT cells (xCELLigence); assay type: cell-based, human; conditions: 10 µM, 1 h
[2] = target: human dopamine transporter (DAT) (Homo sapiens, UniProt Q01959); experiment: TRACT assay, DAT inhibition in JumpIn-DAT cells (+dox); conditions: dox-treated JumpIn-DAT cells, 10 µM inhibitor compared to vehicle-pretreated cells
JumpIn-DAT cells [3] = experiment: cells; conditions: Homo sapiens
U2OS-DAT cells [4] = experiment: Effect of pretreatment alone on impedance, U2OS-DAT cells (xCELLigence); assay type: cell-based, human; conditions: 10 µM, 1 h incubation
DAT [5] = conditions: cited from earlier work
DAT [6] = conditions: cited from earlier work; remark: listed apart in the source
U2OS-DAT cells [7] = experiment: GPCR antagonist experiment, dopamine-induced cell response in U2OS-DAT cells (xCELLigence); assay type: cell-based, human; conditions: 1 µM antagonist 1 h, then 10 µM dopamine
Procedure: Impedance was measured overnight every 15 min.

[8] = system: non-transfected U2OS cells; experiment: GPCR antagonist experiment, dopamine-induced response in non-transfected U2OS cells (xCELLigence); assay type: cell-based, human; conditions: 1 µM antagonist 1 h, then 316 nM dopamine
Procedure: Figure S1. Representative vehicle-corrected xCELLigence traces of GPCR antagonists in three cell lines. (a) Pretreatment of U2OS-DAT cells with 1 µM antagonist for 1 h. (b) […]
vehicle, 1 µM SCH23390 or raclopride for 1 h. ( c) Pretreatment of JumpIn-DAT cells in the (1 picture or pasted object on this page, not shown here)

JumpIn-DAT cells [9] = experiment: GPCR antagonist experiment, dopamine response in dox-treated JumpIn-DAT cells (xCELLigence); assay type: cell-based, human; conditions: 1 µM antagonist 1 h, then 31.6 µM dopamine
DAT [10] = target: T1, DAT (Homo sapiens, UniProt Q01959); experiment: [3H]WIN35,428 saturation binding assay
T1 construct: host or cells: U2OS, transient PEI transfection of pcDNA3.1(+)-DAT; whole cells or membranes
T1 sequence (Q01959 whole entry): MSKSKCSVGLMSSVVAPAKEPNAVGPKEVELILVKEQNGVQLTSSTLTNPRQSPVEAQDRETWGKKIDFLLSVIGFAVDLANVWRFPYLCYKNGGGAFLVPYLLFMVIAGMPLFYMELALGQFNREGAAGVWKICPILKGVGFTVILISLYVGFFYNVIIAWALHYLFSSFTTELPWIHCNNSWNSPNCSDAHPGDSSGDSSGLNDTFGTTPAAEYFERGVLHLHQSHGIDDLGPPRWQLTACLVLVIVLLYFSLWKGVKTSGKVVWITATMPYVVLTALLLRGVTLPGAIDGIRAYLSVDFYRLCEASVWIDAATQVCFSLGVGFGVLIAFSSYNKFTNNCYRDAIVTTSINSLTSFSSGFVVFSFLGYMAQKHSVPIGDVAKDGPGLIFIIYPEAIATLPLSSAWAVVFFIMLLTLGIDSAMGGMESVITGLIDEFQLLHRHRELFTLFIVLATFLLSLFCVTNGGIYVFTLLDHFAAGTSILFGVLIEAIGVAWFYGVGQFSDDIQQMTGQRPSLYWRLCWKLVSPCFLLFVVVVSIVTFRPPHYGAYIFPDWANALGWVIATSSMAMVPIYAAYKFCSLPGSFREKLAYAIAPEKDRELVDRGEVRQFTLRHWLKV

Sequence of human dopamine transporter (DAT) (Q01959 whole entry): as above

## COC(=O)[C@H]1[C@@H](OC(=O)c2ccccc2)C[C@@H]2CC[C@H]1N2C.Cl [Cocaine, Cocaine hydrochloride]
JumpIn-DAT cells [1]
  effect of pretreatment on its own on impedance: did not substantially affect impedance over time
[2]
  enhancement of the apparent potency of dopamine by DAT inhibitor: threefold

## NCCc1ccc(O)c(O)c1 [Dopamine, dopamine hydrochloride]
JumpIn-DAT cells [3]; 0.5 h, read-out: pEC50 ± SEM (apparent potency of dopamine), JumpIn-DAT –dox (converted), fixed pseudo-Hill slope of 1, net AUC first 30 min
  EC50: 7.94 µM
JumpIn-DAT cells [3]; read-out: EC50 in µM, JumpIn-DAT +dox pretreated 1 h with 10 µM GBR12909, fixed pseudo-Hill slope of 1
  EC50: 26 µM
JumpIn-DAT cells [3]; read-out: EC50 in µM, JumpIn-DAT +dox pretreated 1 h with 10 µM cocaine, fixed pseudo-Hill slope of 1
  EC50: 13 µM
JumpIn-DAT cells [3]; read-out: EC50 in µM, JumpIn-DAT –dox, fixed pseudo-Hill slope of 1
  EC50: 8 µM
JumpIn-DAT cells [3]; read-out: pEC50 ± SEM (apparent potency of dopamine), JumpIn-DAT +dox (1 µg/ml), vehicle-pretreated (converted), fixed pseudo-Hill slope of 1
  EC50: 50.1 µM
JumpIn-DAT cells [3]; read-out: pEC50 ± SEM (apparent potency of dopamine), JumpIn-DAT +dox pretreated 1 h with 10 µM GBR12909 (converted), fixed pseudo-Hill slope of 1
  EC50: 25.1 µM
JumpIn-DAT cells [3]; read-out: pEC50 ± SEM (apparent potency of dopamine), JumpIn-DAT +dox pretreated 1 h with 10 µM cocaine (converted), fixed pseudo-Hill slope of 1
  EC50: 12.6 µM
JumpIn-DAT cells [3]; read-out: pEC50 ± SEM (variable slope), JumpIn-DAT +dox (converted), variable slope model
  EC50: 31.6 µM
JumpIn-DAT cells [3]; read-out: pEC50 ± SEM (variable slope), JumpIn-DAT +dox + 10 µM GBR12909 (converted), variable slope model
  EC50: 31.6 µM
JumpIn-DAT cells [3]; read-out: pEC50 ± SEM (variable slope), JumpIn-DAT +dox + 10 µM cocaine (converted), variable slope model
  EC50: 20 µM

## Cl.Cl.Fc1ccc(C(OCCN2CCN(CCCc3ccccc3)CC2)c2ccc(F)cc2)cc1 [GBR12909, GBR12909 dihydrochloride]
U2OS-DAT cells [4]
  effect of pretreatment itself on impedance: did not substantially affect impedance
JumpIn-DAT cells [1]
  effect of pretreatment on its own on impedance: did not substantially affect impedance over time
DAT [5]
  pIC50, MPP+-induced toxicity inhibition: 7.0
DAT [6]
  affinity for DAT: low nanomolar
[2]
  enhancement of the apparent potency of dopamine by DAT inhibitor: twofold

## CN1CCc2cc(Cl)c(O)cc2[C@@H](c2ccccc2)C1 [SCH23390, SCH23390 hydrochloride]
U2OS-DAT cells [7]
  effect on dopamine-induced cell response: completely abolish
[8]
  effect on dopamine-induced response: eliminated the dopamine-induced response
JumpIn-DAT cells [9]
  effect on dopamine response: not affected

## [3H]CN1[C@H]2CC[C@@H]1[C@@H](C(=O)OC)[C@@H](c1ccc(F)cc1)C2 [[^3H]WIN35,428, [^3H]-2β-carbomethoxy-3β-(4-fluorophenyl)-tropane]
DAT [10]; U2OS-DAT membranes
  Bmax (total amount of binding sites): 1.6 ± 0.2 pmol/mg protein
DAT [10]; U2OS-mock membranes
  specific binding: No specific binding

## CCN1CCC[C@H]1CNC(=O)c1c(O)c(Cl)cc(Cl)c1OC [raclopride]
[8]
  effect on dopamine-induced response: not

## COC(=O)[C@@H]1[C@H]2C[C@H]3c4[nH]c5ccccc5c4CCN3C[C@@H]2CC[C@@H]1O [yohimbine, Yohimbine hydrochloride]
JumpIn-DAT cells [9]
  effect on dopamine response: significantly reduced
